PMC5448077, “Development of an orally available inhibitor of CLK1 for skipping a mutated dystrophin exon in Duchenne muscular dystrophy” (Scientific Reports, 2017)

Assays:
Experiment in all cases: biochemical
MARK2 = MARK2 (Homo sapiens, UniProt Q7KZI7)
In short: (§1)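 Human kinases phosphorylating kinase-specific synthetic peptides, assayed by mobility shift (MSA) or IMAP fluorescence polarization, in 20 mM HEPES pH 7.5, 0.01% Triton X-100, 2 mM DTT with substrate/ATP-metal. Reactions ran 1 or 5 h at room temperature; activity = P/(P + S) from product and substrate peak heights.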

KIT(T670I) = KIT(T670I) (Homo sapiens, UniProt P10721, T670I)
In short: as §1

CDK5/p25 = molecular target: T1, CDK5/p25 (Homo sapiens, UniProt Q00535)
T1 construct: p25
In short: as §1

CLK2 = CLK2 (Homo sapiens, UniProt P49760)
In short: as §1

DYRK2 = DYRK2 (Homo sapiens, UniProt Q92630)
In short: as §1

Erk2 = molecular target: T2, Erk2 (Homo sapiens, UniProt P28482)
T2 construct: gene MAPK1
In short: as §1

ITK = ITK (Homo sapiens, UniProt Q08881)
In short: as §1

CK1γ3 = molecular target: T3, CK1γ3 (Homo sapiens, UniProt Q9Y6M4)
T3 construct: gene CSNK1G3
In short: as §1

CK1α = molecular target: T4, CK1α (Homo sapiens, UniProt P48729)
T4 construct: gene CSNK1A1
In short: as §1

CGK2 = molecular target: T5, CGK2 (Homo sapiens, UniProt Q13237)
T5 construct: gene PRKG2
In short: as §1

JAK2 = JAK2 (Homo sapiens, UniProt O60674)
In short: as §1

GSK3α = molecular target: T6, GSK3α (Homo sapiens, UniProt P49840)
T6 construct: gene GSK3A
In short: as §1

PDK1 = molecular target: T7, PDK1 (Homo sapiens, UniProt O15530)
T7 construct: gene PDPK1
In short: as §1

PAK2 = PAK2 (Homo sapiens, UniProt Q13177)
In short: as §1

SRPK2 = SRPK2 (Homo sapiens, UniProt P78362)
In short: as §1

JAK1 = JAK1 (Homo sapiens, UniProt P23458)
In short: as §1

IKKε = molecular target: T8, IKKε (Homo sapiens, UniProt Q14164)
T8 construct: gene IKBKE
In short: as §1

JNK3 = molecular target: T9, JNK3 (Homo sapiens, UniProt P53779)
T9 construct: gene MAPK10
In short: as §1

PLK1 = PLK1 (Homo sapiens, UniProt P53350)
In short: as §1

MST4 = molecular target: T10, MST4 (Homo sapiens, UniProt Q9P289)
T10 construct: gene STK26
In short: as §1

ARG = molecular target: T11, ARG (Homo sapiens, UniProt P42684)
T11 construct: gene ABL2
In short: as §1

JAK3 = JAK3 (Homo sapiens, UniProt P52333)
In short: as §1

CDK6/CycD3 = CDK6/CycD3 (Homo sapiens, UniProt Q00534)
In short: as §1

MAPKAPK3 = MAPKAPK3 (Homo sapiens, UniProt Q16644)
In short: as §1

EPHA3 = EPHA3 (Homo sapiens, UniProt P29320)
In short: as §1

GSK3β = molecular target: T12, GSK3β (Homo sapiens, UniProt P49841)
T12 construct: gene GSK3B
In short: as §1

TSSK2 = TSSK2 (Homo sapiens, UniProt Q96PF2)
In short: as §1

CaMK4 = CaMK4 (Homo sapiens, UniProt Q16566)
In short: as §1

IRAK1 = IRAK1 (Homo sapiens, UniProt P51617)
In short: as §1

p70S6K = molecular target: T13, p70S6K (Homo sapiens, UniProt P23443)
T13 construct: gene RPS6KB1
In short: as §1

EPHA6 = EPHA6 (Homo sapiens, UniProt Q9UF33)
In short: as §1

T5 sequence (Q13237 whole entry): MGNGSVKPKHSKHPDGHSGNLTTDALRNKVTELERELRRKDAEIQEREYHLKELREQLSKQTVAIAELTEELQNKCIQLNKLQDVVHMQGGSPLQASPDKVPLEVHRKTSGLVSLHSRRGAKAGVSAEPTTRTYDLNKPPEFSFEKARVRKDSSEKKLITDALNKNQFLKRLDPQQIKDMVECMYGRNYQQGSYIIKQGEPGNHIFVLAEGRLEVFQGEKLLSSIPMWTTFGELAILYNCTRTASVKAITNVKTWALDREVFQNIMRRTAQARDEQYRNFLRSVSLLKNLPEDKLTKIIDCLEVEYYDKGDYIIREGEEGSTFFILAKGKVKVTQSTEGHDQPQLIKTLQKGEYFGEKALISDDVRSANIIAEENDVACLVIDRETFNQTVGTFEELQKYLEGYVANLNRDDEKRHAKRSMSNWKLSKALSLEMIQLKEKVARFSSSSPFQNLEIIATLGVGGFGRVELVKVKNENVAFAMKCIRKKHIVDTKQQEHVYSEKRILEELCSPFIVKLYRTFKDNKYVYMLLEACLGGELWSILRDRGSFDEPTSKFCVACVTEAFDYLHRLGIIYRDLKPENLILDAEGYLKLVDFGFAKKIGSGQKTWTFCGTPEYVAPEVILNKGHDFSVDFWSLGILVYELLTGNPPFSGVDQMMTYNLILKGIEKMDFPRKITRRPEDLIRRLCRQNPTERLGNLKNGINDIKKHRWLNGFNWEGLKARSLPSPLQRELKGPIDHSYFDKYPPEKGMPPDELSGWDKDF
T6 sequence (P49840 whole entry): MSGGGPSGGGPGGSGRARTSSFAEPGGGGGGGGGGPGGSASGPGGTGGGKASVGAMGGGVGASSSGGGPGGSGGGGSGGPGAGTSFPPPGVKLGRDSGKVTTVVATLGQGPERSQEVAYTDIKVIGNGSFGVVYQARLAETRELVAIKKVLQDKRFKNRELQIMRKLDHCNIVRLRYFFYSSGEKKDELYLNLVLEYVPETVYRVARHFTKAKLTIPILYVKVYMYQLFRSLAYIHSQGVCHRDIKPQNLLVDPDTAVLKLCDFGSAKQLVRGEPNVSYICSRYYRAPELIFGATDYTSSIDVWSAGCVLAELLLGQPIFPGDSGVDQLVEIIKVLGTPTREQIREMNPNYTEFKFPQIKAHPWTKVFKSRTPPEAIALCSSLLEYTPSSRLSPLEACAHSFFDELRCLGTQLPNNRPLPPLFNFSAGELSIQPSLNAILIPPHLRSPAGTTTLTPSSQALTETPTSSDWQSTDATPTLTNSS
Chain of EPHA3 (P29320 whole entry): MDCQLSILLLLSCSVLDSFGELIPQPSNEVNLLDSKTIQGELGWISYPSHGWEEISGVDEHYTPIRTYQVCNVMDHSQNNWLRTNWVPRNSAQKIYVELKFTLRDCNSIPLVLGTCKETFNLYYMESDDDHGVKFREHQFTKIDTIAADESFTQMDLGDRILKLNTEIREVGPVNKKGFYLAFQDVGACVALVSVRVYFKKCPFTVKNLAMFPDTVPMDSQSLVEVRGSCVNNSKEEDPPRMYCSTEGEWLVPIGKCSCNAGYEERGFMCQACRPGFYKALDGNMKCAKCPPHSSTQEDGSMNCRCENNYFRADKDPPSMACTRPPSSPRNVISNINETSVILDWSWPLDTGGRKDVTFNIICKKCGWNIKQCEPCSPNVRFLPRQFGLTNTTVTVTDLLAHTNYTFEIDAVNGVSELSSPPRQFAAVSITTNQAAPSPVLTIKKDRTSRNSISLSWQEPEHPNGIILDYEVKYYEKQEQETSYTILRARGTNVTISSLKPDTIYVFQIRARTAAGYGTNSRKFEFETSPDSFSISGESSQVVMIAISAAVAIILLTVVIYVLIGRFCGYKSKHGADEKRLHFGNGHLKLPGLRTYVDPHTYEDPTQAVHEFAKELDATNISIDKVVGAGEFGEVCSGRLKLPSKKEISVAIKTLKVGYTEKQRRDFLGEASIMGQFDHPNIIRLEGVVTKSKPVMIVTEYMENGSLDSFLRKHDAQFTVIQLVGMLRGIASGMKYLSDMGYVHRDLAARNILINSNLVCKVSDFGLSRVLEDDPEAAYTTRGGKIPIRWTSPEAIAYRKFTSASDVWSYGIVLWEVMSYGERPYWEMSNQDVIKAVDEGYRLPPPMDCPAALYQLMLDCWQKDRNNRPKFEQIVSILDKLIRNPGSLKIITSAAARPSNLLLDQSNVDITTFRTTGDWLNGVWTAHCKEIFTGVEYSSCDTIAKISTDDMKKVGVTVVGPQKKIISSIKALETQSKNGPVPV
T12 sequence (P49841 whole entry): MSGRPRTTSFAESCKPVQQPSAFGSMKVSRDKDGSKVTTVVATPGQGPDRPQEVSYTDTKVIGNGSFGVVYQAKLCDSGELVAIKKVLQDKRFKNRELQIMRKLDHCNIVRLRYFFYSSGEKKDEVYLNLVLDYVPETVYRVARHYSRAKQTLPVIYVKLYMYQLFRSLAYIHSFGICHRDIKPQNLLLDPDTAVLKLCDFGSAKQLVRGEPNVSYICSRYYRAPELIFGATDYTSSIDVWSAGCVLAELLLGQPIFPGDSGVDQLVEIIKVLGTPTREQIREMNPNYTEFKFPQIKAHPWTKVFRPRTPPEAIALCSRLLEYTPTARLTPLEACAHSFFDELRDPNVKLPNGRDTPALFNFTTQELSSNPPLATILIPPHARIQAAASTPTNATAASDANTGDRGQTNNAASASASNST
Chain of IRAK1 (P51617 whole entry): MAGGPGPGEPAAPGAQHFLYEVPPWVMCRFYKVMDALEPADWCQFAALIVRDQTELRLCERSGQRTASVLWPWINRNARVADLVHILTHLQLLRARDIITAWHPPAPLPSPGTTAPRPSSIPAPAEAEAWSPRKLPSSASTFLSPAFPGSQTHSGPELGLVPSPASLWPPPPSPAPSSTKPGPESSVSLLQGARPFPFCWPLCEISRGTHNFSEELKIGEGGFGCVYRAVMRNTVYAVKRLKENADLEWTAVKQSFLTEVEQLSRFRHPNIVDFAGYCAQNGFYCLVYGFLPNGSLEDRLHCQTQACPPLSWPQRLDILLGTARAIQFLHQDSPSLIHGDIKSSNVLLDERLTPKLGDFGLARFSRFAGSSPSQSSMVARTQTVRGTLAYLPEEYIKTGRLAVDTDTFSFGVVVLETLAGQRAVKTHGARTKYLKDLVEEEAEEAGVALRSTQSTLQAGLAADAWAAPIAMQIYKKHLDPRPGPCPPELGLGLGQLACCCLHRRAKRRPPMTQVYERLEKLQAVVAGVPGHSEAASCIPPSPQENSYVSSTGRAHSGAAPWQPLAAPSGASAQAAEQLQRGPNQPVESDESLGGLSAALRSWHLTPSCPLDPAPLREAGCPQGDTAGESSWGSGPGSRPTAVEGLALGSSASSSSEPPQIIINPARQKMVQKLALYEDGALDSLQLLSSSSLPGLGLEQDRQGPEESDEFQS
Chain of TSSK2 (Q96PF2 whole entry): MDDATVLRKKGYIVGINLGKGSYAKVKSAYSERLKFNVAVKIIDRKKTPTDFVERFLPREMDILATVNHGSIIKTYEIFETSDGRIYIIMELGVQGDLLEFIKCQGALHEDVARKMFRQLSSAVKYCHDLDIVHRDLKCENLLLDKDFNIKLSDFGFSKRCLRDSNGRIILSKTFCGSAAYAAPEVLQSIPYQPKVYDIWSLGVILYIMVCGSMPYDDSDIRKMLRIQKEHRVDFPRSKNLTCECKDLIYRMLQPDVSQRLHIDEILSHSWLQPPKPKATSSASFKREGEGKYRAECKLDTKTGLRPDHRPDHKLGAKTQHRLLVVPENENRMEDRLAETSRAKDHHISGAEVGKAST
Chain of SRPK2 (P78362 whole entry): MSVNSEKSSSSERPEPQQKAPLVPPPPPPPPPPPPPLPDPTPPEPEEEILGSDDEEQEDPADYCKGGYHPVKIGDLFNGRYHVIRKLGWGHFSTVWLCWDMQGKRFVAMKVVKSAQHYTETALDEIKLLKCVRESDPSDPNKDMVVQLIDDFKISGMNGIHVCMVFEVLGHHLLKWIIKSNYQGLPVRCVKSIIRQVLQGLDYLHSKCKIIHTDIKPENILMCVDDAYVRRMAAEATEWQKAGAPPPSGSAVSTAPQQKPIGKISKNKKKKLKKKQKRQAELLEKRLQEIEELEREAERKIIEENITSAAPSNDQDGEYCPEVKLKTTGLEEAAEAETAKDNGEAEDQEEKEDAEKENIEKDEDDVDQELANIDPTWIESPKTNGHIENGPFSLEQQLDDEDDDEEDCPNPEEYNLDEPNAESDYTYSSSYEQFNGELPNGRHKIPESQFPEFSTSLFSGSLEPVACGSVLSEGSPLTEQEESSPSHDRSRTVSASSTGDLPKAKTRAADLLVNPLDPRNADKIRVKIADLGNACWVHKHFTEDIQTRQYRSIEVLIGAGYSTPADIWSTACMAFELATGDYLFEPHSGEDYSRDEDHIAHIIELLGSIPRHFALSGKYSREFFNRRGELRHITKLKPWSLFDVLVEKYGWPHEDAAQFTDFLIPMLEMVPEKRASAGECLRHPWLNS
Chain of PLK1 (P53350 whole entry): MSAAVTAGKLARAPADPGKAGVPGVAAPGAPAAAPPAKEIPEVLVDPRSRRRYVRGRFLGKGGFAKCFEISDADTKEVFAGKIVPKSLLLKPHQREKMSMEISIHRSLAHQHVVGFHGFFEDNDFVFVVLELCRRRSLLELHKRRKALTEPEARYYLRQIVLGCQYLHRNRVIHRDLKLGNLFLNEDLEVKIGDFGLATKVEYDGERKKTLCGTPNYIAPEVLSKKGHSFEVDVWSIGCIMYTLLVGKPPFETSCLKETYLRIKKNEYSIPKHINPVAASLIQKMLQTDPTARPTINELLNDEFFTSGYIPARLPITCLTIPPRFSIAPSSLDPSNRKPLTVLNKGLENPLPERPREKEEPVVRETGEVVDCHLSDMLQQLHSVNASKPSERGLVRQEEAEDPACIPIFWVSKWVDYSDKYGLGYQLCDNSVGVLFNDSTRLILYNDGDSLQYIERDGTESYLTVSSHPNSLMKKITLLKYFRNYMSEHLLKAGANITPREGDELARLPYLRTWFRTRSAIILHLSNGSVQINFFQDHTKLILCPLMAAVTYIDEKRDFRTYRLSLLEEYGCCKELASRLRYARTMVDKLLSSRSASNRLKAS

c1cc(-c2ccc3[nH]ncc3c2)ccn1 [TG693, 5-(4-pyridinyl)-1H-indazole]
inhibition at 1 µM (MARK2): 20.3% | inhibition at 1 µM (KIT(T670I)): -0.7% | inhibition at 1 µM (CDK5/p25): 21.8% | inhibition at 1 µM (CLK2): 14.9% | inhibition at 1 µM (DYRK2): 77.2% | inhibition at 1 µM (Erk2): -5.8% | inhibition at 1 µM (ITK): 2.8% | inhibition at 1 µM (CK1γ3): -7.7% | inhibition at 1 µM (CK1α): 11.9% | inhibition at 1 µM (CGK2): 38.5% | inhibition at 1 µM (JAK2): 7.9% | inhibition at 1 µM (GSK3α): 12.6% | inhibition at 1 µM (PDK1): -3.9% | inhibition at 1 µM (PAK2): -51.3% | inhibition at 1 µM (SRPK2): 0.5% | inhibition at 1 µM (JAK1): -0.7% | inhibition at 1 µM (IKKε): 6.1% | inhibition at 1 µM (JNK3): -4.4% | inhibition at 1 µM (PLK1): -8.5% | inhibition at 1 µM (MST4): 4.1% | inhibition at 1 µM (ARG): 4.7% | inhibition at 1 µM (JAK3): 11.6% | inhibition at 1 µM (CDK6/CycD3): 9.1% | inhibition at 1 µM (MAPKAPK3): -13.1% | inhibition at 1 µM (EPHA3): 0.4% | inhibition at 1 µM (GSK3β): 8.5% | inhibition at 1 µM (TSSK2): -0.1% | inhibition at 1 µM (CaMK4): 0.5% | inhibition at 1 µM (IRAK1): 4.2% | inhibition at 1 µM (p70S6K): 46% | inhibition at 1 µM (EPHA6): -3.5%
